Experimental data from patent publication US9555029B2 (HIKMA PHARMACEUTICALS, priority 2013, dated 2017).
Read-outs that look alike come from different tables or passages of the source.

Key:
[1] = cited from earlier work; for Kel / T1/2el: arithmetic mean; for AUCT / Cmax: geometric mean
[2] = for AUCT/∞ / Kel / T1/2el: mean
[3] = cited from earlier work; for AUCT / Cmax: geometric mean
[4] = cited from earlier work; for Kel / T1/2el: arithmetic mean
[5] = Colchicine pharmacokinetics coadministered with fluconazole
Procedure: The inhibitor dosage form was an oral 200 mg tablet of Diflucan® (fluconazole, from Pfizer).
The fluconazole trial differed from the Example 2 protocol as follows.

[6] = Treatment-1: colchicine 0.6 mg alone (day 1, fasted), cyclosporine study
[7] = Treatment-2: colchicine 0.6 mg + cyclosporine 100 mg once (day 15)
[8] = Treatment-1 (day 1): colchicine 0.6 mg alone, fasted, cimetidine study
[9] = Treatment-2 (day 9): colchicine 0.6 mg + cimetidine 800 mg after double dose day 4, once daily days 5-8, fasted
[10] = Treatment-1: colchicine 0.6 mg alone (day 1, fasted), ketoconazole study, arithmetic mean
[11] = Treatment-1: colchicine 0.6 mg alone (day 1, fasted), ketoconazole study
[12] = Treatment-2: colchicine 0.6 mg (day 19) + ketoconazole 200 mg twice daily
[13] = of 12 subjects, colchicine + propafenone
[14] = of 12 subjects, propafenone study
[15] = Treatment-1: colchicine 0.6 mg alone (day 1, fasted), verapamil ER study
[16] = Treatment-1: colchicine 0.6 mg alone (day 1, fasted), verapamil ER study, geometric mean
[17] = Treatment-2: colchicine 0.6 mg (day 19) + verapamil ER 240 mg once daily (days 15-19)
[18] = Treatment-1 (day 1): colchicine 0.6 mg alone, fasted, fluconazole study, mean
[19] = Treatment-2 (day 9): colchicine 0.6 mg + fluconazole 200 mg after double dose day 4, once daily days 5-8, fasted, mean
[20] = co-administration of fluconazole vs colchicine alone

## COc1cc2c(c(OC)c1OC)-c1ccc(OC)c(=O)cc1[C@@H](NC(C)=O)CC2 [Colchicine, (S)N-(5,6,7,9-tetrahydro-1,2,3,10-tetramethoxy-9-oxobenzo[alpha]heptalen-7-yl)acetamide]
[1]; [6]
  Kel: 0.147 h⁻¹
  T1/2el: 6.777 h
  CLTOT/F: 48.24 L/h
  AUCT: 12,555 pg · h/mL
  Cmax: 2,720 pg/mL
[1]; [7]
  Kel: 0.038 h⁻¹
  T1/2el: 20.65 h
  CLTOT/F: 13.42 L/h
  AUCT: 29,830 pg · h/mL
  Cmax: 8,820 pg/mL
[2]; [8]
  AUCT/∞: 85.29%
  Kel: 0.0201 h⁻¹
  T1/2el: 35.46 h
[2]; [9]
  AUCT/∞: 86.53%
  Kel: 0.0222 h⁻¹
  T1/2el: 31.54 h
[2]; coadministration with cimetidine vs colchicine alone
  Decrease of colchicine Cmax: 33%
[2]; coadministration with cimetidine vs colchicine alone, not significant
  Decrease of colchicine AUC: 15%
[3]; [10]
  Kel: 0.1491 h⁻¹
  T1/2el: 6.28 h
[3]; [11]
  CLTOT/F: 49.3 L/h
  AUCT: 11,990 pg · h/mL
  Cmax: 2,780 pg/mL
[3]; Treatment-2: colchicine 0.6 mg (day 19) + ketoconazole 200 mg twice daily, arithmetic mean
  T1/2el: 26.06 h
[3]; [12]
  CLTOT/F: 14.8 L/h
  AUCT: 34,380 pg · h/mL
  Cmax: 5,270 pg/mL
Colchicine + propafenone
  Total number of adverse events after Treatment-2: 1
[13]
  Number of subjects experiencing adverse events after Treatment-2: 1
  Percent of subjects experiencing adverse events after Treatment-2: 8.3%
[14]
  Number of subjects experiencing adverse events after Treatment-1: 9
  Percent of subjects experiencing adverse events after Treatment-1: 75.0%
Propafenone study
  Number of adverse events requiring medication after Treatment-1: None
  Number of serious adverse events or deaths: None
  Total number of adverse events after Treatment-1: 19
[4]; [15]
  Kel: 0.1409 h⁻¹
  T1/2el: 4.3 h
  CLTOT/F: 43.93 L/h
[4]; [16]
  AUCT: 13,090 pg · h/mL
  Cmax: 2,970 pg/mL
[4]; [17]
  Kel: 0.0480 h⁻¹
  T1/2el: 17.17 h
  CLTOT/F: 21.01 L/h
[4]; Treatment-2: colchicine 0.6 mg (day 19) + verapamil ER 240 mg once daily (days 15-19), geometric mean
  Cmax: 3,850 pg/mL
[5]; [18]
  AUCT/∞: 85.33%
  Kel: 0.0206 h⁻¹
  T1/2el: 34.05 h
[5]; [19]
  AUCT/∞: 83.54%
  Kel: 0.0204 h⁻¹
  T1/2el: 34.51 h
[5]; [20]
  Increase of mean Cmax for colchicine: 13%
  Increase of overall exposure of colchicine (AUC): 40%
[5]; male, human, in vivo, 0.6 mg
  CL/F: 610 mL/min
  Tmax: 1.25 h
  Vd/F: 1810 L
[5]; male, human, in vivo, 0.6 mg, AUCT GEOMETRIC LSMEANS, Treatment-1: colchicine 0.6 mg alone, fluconazole study
  AUC(0-t): 14.5 ng·h/mL
[5]; male, human, in vivo, 0.6 mg, AUCT, Treatment-1 (day 1): colchicine 0.6 mg alone, fasted, fluconazole study, mean
  AUC(0-t): 14.9 ng·h/mL
[5]; male, human, in vivo, 0.6 mg, AUC∞ GEOMETRIC LSMEANS, Treatment-1: colchicine 0.6 mg alone, fluconazole study
  AUC(0-inf): 17 ng·h/mL
[5]; male, human, in vivo, 0.6 mg, AUC∞, Treatment-1 (day 1): colchicine 0.6 mg alone, fasted, fluconazole study, mean
  AUC(0-inf): 17.5 ng·h/mL
[5]; male, human, in vivo, 0.6 mg, Cmax GEOMETRIC LSMEANS, Treatment-1: colchicine 0.6 mg alone, fluconazole study
  Cmax: 1.81 ng/mL
[5]; male, human, in vivo, 0.6 mg, Cmax, Treatment-1 (day 1): colchicine 0.6 mg alone, fasted, fluconazole study, mean
  Cmax: 1.93 ng/mL
[5]; male, human, in vivo, AUCT GEOMETRIC LSMEANS, Treatment-2: colchicine 0.6 mg + fluconazole
  AUC(0-t): 20.4 ng·h/mL
